Test results published in patent US4250094A, “1-(Aminoalkyl) substituted-6-phenyl-4H-s-triazolo[4,3-a][1,4]benzodiazepines” (priority 1979, dated 1981).
Entries after “also recorded” stand apart in the source; their conditions may differ. Structures can show the parent of a compound that is named as a salt.

What was measured:
[1] = tested on: strychnine; type: in vivo; conditions: 3 mg./kg. intraperitoneally
Experimental: The test consists in orally administering into groups of 6 mice the test compound, and 30 minutes later 3 mg./kg. strychnine sulfate intraperitoneally. The survivors after 4 hours reflect the activity of the compound as a muscle relaxant and antispasmodic.

[2] = tested on: oxotremorine; experiment: Hypothermic tests with oxotremorine: body temperature change; type: in vivo, mice; conditions: for Body Temperature °F. Change From Vehicle Control After 15 Minutes / Body Temperature °F. Change From Vehicle Control After 30 Minutes / Body Temperature °F. Change From Vehicle Control After 60 Minutes / Body Temperature °F. Change From Vehicle Control After 90 Minutes: ip, 0.5 h; for antagonism of oxotremorine temperature decrease: oxotremorine 0.6 mg./kg., in words
Excerpt: Hypothermic tests with oxotermorine: [1-(4-pyrrolidino-2-butynyl)-2-pyrrolidinone].

[3] = tested on: oxotremorine; conditions: in words, cited from earlier work; for block of oxotremorine hypothermic response: mice
[4] = tested on: yohimbine; type: in vivo, mice; conditions: Table VII
Experimental: Ten male CF mice, 18-22 g., were injected with the anti-depressant and 30 minutes later with 30 mg. of yohimbine hydrochloride (YCl) in saline solution. After two hours, the LD50 are determined.

[5] = tested on: oxotremorine; type: in vivo, mice; conditions: Table VII
Experimental: The present compounds were tested as follows. […] The lowering of the body temperature was measured rectally with an electronic thermometer, before and 30 minutes after drug administration. After the drug administration the mice were kept at 19° C. in cages. A four degree difference between the control mice (oxotremorine alone) and the treated mice (oxotremorine and test compound) was used to indicate the antagonistic action of the test compound.

[6] = Lethality of yohimbine hydrochloride alone; type: in vivo; conditions: mice, 30 mg./kg., in words
Experimental: After two hours, the LD50 are determined.

[7] = tested on: nicotine; conditions: control (untreated) mice, nicotine salicylate 2 mg./kg.
[8] = tested on: apomorphine; conditions: Table VII

SMILES: O=C1C[C@@H]2OCC=C3CN4CC[C@]56c7ccccc7N1[C@H]5[C@H]2[C@H]3C[C@H]46 [strychnine sulfate]
- lethality of strychnine sulfate in control mice [1]: routinely fatal to all the control mice

SMILES: CNCCCN1c2ccccc2CCc2ccccc21 [Desipramine]
- Body Temperature °F. Change From Vehicle Control After 15 Minutes ([2]; 25 mg/kg): -3.5 °F.
- Body Temperature °F. Change From Vehicle Control After 30 Minutes ([2]; 25 mg/kg): - 3.5 °F.
- Body Temperature °F. Change From Vehicle Control After 60 Minutes ([2]; 25 mg/kg): - 4.1 °F.
- Body Temperature °F. Change From Vehicle Control After 90 Minutes ([2]; 25 mg/kg): - 3.6 °F.
- antagonism of oxotremorine temperature decrease ([2]; mice): antagonized

SMILES: CN1[C@@H]2CC[C@H]1C[C@@H](OC(=O)C(CO)c1ccccc1)C2 (stereo partly shown) [Atropine]
- block of oxotremorine hypothermic response [3]: blocked

SMILES: CN(C)CCC=C1c2ccccc2CCc2ccccc21 [Amitriptyline]
- Body Temperature °F. Change From Vehicle Control After 15 Minutes ([2]; 25 mg/kg): +0.7 °F.
- Body Temperature °F. Change From Vehicle Control After 30 Minutes ([2]; 25 mg/kg): - 2.4 °F.
- Body Temperature °F. Change From Vehicle Control After 60 Minutes ([2]; 25 mg/kg): - 5.4 °F.
- Body Temperature °F. Change From Vehicle Control After 90 Minutes ([2]; 25 mg/kg): - 6.8 °F.

SMILES: NCc1nnc2n1-c1ccc(Cl)cc1C(c1ccccc1)=NC2 [1-(Aminomethyl)-8-chloro-6-phenyl-4H-s-triazolo[4,3-a][1,4]benzodiazepine]
- YO (Yohimbine test) [4]: 35.4
- Oxo (oxotremorine test) [5]: 29.7

SMILES: O=C1CCCN1CC#CCN1CCCC1 [Oxotremorine, 1-(4-pyrrolidino-2-butynyl)-2-pyrrolidinone]
- hypothermic response in mice [3]: produces hypothermic responses in mice
- decrease of body temperature of a mouse ([2]; 0.6 mg./kg., mouse kept at room temperature): about 13 ° F.
- time of peak hypothermia after administration ([2]; mice): 60 min

SMILES: COC(=O)[C@@H]1[C@H]2C[C@H]3c4[nH]c5ccccc5c4CCN3C[C@@H]2CC[C@@H]1O [yohimbine hydrochloride]
- lethality of yohimbine hydrochloride alone [6]: non-lethal
- lethality of yohimbine hydrochloride alone ([6]; listed as YCl): no death; also recorded: No mice or only one mouse is killed

SMILES: CN1CCC[C@H]1c1cccnc1 [nicotine salicylate]
- effect of nicotine salicylate in control mice [7]: running convulsions followed by (2) tonic extensor fits; followed by (3) death

SMILES: COc1cc2c(cc1OC)C1CC(=O)C(CC(C)C)CN1CC2 (stereo not shown) [tetrabenazine]
- hypothermic response in mice [3]: produces hypothermic responses in mice

SMILES: CN(C)CCCN1c2ccccc2CCc2ccccc21 [Imipramine]
- block of oxotremorine hypothermic response [3]: blocked
- Body Temperature °F. Change From Vehicle Control After 15 Minutes ([2]; 25 mg/kg): -0.4 °F.
- Body Temperature °F. Change From Vehicle Control After 30 Minutes ([2]; 25 mg/kg): - 3.3 °F.
- Body Temperature °F. Change From Vehicle Control After 60 Minutes ([2]; 25 mg/kg): - 5.6 °F.
- Body Temperature °F. Change From Vehicle Control After 90 Minutes ([2]; 25 mg/kg): - 6.4 °F.
- antagonism of oxotremorine temperature decrease ([2]; mice): antagonized

SMILES: CN(C)Cc1nnc2n1-c1ccc(Cl)cc1C(c1ccccc1Cl)=NC2 [8-Chloro-1-[(dimethylamino)methyl]-6-(o-chlorophenyl)-4H-s-triazolo[4,3-a][1,4]benzodiazepine]
- Ap (Apomorphine test) [8]: 17.8

SMILES: CN1CCc2cccc3c2[C@H]1Cc1ccc(O)c(O)c1-3 [apomorphine]
- hypothermic response in mice [3]: produces hypothermic responses in mice

SMILES: CC(N)Cc1ccccc1 (stereo not shown) [Amphetamine]
- Body Temperature °F. Change From Vehicle Control After 15 Minutes ([2]; 5 mg/kg): -1.5 °F.
- Body Temperature °F. Change From Vehicle Control After 30 Minutes ([2]; 5 mg/kg): - 4.3 °F.
- Body Temperature °F. Change From Vehicle Control After 60 Minutes ([2]; 5 mg/kg): - 4.4 °F.
- Body Temperature °F. Change From Vehicle Control After 90 Minutes ([2]; 5 mg/kg): - 2.2 °F.

SMILES: CN(C)CCC=C1c2ccccc2COc2ccccc21 [Doxepine]
- Body Temperature °F. Change From Vehicle Control After 15 Minutes ([2]; 25 mg/kg): -2.3 °F.
- Body Temperature °F. Change From Vehicle Control After 30 Minutes ([2]; 25 mg/kg): - 7.1 °F.
- Body Temperature °F. Change From Vehicle Control After 60 Minutes ([2]; 25 mg/kg): -11.0 °F.
- Body Temperature °F. Change From Vehicle Control After 90 Minutes ([2]; 25 mg/kg): -12.3 °F.
- antagonism of oxotremorine temperature decrease ([2]; mice): antagonized
